The test system of this assay is 565232-114-T-J1-PDC complex spheroid viability. Briefly: Anticancer human tumor 565232-114-T-J1-PDC patient-derived bladder carcinoma cell line growth inhibition [CLK]. Conditions: for viability, T/C: stronger effect = lower value; for pIC50: curve of compound. The procedure, abridged:
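Multi-cell-type spheroids combined patient-derived tumor cells with HUVEC endothelial cells and human mesenchymal stem cells. Paired agents were dosed in half-log steps down from about clinical Cmax, or from 10 microM where Cmax was unknown.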

pIC50: −log10 of the molar value. Several values for one entry are separate records, joined by “and”; a condition that tells them apart may be missing. Identical values can stand only once.
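Further: spheroids exposed to compounds for 7 days before readout.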
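Wherever viability, T/C is given: 100% = DMSO vehicle wells with luminescence normalized to vehicle control.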

On to `CCc1c2c(nc3ccc(O)cc13)-c1cc3c(c(=O)n1C2)COC(=O)[C@]3(O)CC`, for which the pIC50 is 7.18 and 7.72. Under “compound 0.00316 µM”, the viability, T/C is 91.1% and 106%. Under “compound 0.01 µM”, the viability, T/C was 76.9% and 89.2%. For the setting “compound 0.0316 µM”, the viability, T/C is 66.4% and 18%. Also, for the setting “compound 0.316 µM”, the viability, T/C is 18.8% and 5.03%. For the setting “compound 1 µM”, the viability, T/C is 5.24% and 1.76%.
As to `CC(=O)O[C@H]1C(=O)[C@@]2(C)[C@H]([C@H](OC(=O)c3ccccc3)[C@]3(O)C[C@H](OC(=O)[C@H](O)[C@@H](NC(=O)c4ccccc4)c4ccccc4)C(C)=C1C3(C)C)[C@]1(OC(C)=O)CO[C@@H]1C[C@@H]2O`, the pIC50 was more than 7.50. Besides, for the setting “compound 0.0316 µM”, the viability, T/C is 39.2% and 16.7%. Where the note is “compound 0.1 µM”, the viability, T/C is 20.1% and 11.8%. Also, the viability, T/C (compound 0.316 µM) is 19.2% and 10.8%. Moreover, the viability, T/C (compound 1 µM) is 15.5% and 6.12%. In addition, for the setting “compound 3.16 µM”, the viability, T/C is 20% and 10.1%. Also, the viability, T/C (compound 10 µM) is 23.2% and 10.5%.
`CN1CCN(c2cc(C(=O)Nc3cc4cc(-c5cnn(C)c5)ccc4cn3)ccn2)CC1`: the viability, T/C is 97.6% [middle of 9 runs] (compound 0.0316 µM); 106% [middle of 9 runs] (compound 0.1 µM); 19.9% [middle of 9 runs] (compound 0.316 µM); 1.63% [middle of 9 runs] (compound 1 µM); 0.86% [middle of 9 runs] (compound 3.16 µM); 0.47% [middle of 9 runs] (compound 10 µM). Also, the IC50 (compound alone, run of 07/31/2023) is 212 nM [middle of 8 runs].

Source of the values: PubChem BioAssay AID2060612 (Molecular Pharmacology Branch, DTP, NCI, 2025).
